Measured values: a melting point compilation (Tetko et al.)

melting point [°C] | SMILES
145 | O=C(CCCCC(=O)NCCCC(=O)ON1C(=O)CCC1=O)NCCCC(=O)ON1C(=O)CCC1=O
260 | Nc1ncnc2c1ncn2C1OC2COP(=O)(O)OC2C1O (centres undefined)
210 | Cc1cccc2c(C=O)c[nH]c12
92 | Nc1ccc([N+](=O)[O-])cc1C(F)(F)F
162 | CCN(CC)CC(=O)OCC(=O)C1(O)CCC2C3CCC4=CC(=O)CCC4(C)C3C(O)CC21C (centres undefined)
213 to 216 | O=C(O)CC1NC(=O)NC1=O (centres undefined)
260 | O/N=C1\C(c2ccccc2)=Nc2ccccc21
41 to 47 | O=C(C1CCNCC1)N1CCCCCC1
130 | CC(CCCO)C1CCC2C3CCC4CCCCC4(C)C3CCC12C (centres undefined)
143 to 144 | CC(C)(C)OC(=O)N1CCCN(c2cccc(O)c2)CC1
126 to 127 | CSc1nc(N)c(C(=O)c2ccccc2)s1
95 to 98 | O=[N+]([O-])c1ccc2c(c1)OCCOCCOCCOCCO2
108 to 110 | CCOC(=O)c1csc(-c2cccc(Cl)c2Cl)n1
80 | Cc1c(NC(C)C)c(=O)n(-c2ccccc2)n1C
226 | CCCC1OC2CC3C4CCC5=CC(=O)C=CC5(C)C4C(O)CC3(C)C2(C(=O)CO)O1 (centres undefined)
259 to 262 | O=C(O)c1n[nH]c2ccccc12
150 to 152 | O=C(COc1ccc2ccccc2c1)ON1C(=O)CCC1=O
61 | C1CCCCCCCCCCCCCCC1
51 | O=C=Nc1csc(-c2ccc(C(F)(F)F)cc2)n1
135 to 137 | N#Cc1c(N)cccc1Cl
254 | O=C1OC(=O)C2=C1Cc1cc3c(cc1C2)CC3
194 to 196 | CSc1nc(N=Cc2ccc([N+](=O)[O-])cc2)nn1C
175 to 176 | O=Cc1sc(Br)c2c1OCCO2
25.1 | OC1CCCCCCC1
188 | CC12CCC(C1(C)C)C(C/C=C\c1ccccc1)(C1(C/C=C/c3ccccc3)C(=O)C3(C)CCC1C3(C)C)C2=O (centres undefined)

melting point [°C] | SMILES
300 | N#Cc1c(C2CCCCC2)[nH]c(=S)[nH]c1=O
157 | CC(=O)/N=c1\sc(C(C)=O)nn1-c1ccc(F)cc1
183 to 184 | Cc1n[nH]c(=S)n(N)c1=O
262 to 264 | Cc1nc(-c2ccc(C(=O)O)cc2)no1
96 | N#C/C(=C\c1c(Cl)cccc1Cl)c1nc(-c2ccccc2)cs1
237 to 238 | Cc1c2c(c(C)c3c1C(=O)C3)C(=O)C2
176 | CSc1n[nH]c(N)c1C(N)=O
138 to 140 | O=C(O)CCC(=O)c1ccc2c(c1)OCCO2
148 | COc1cc2c(cc1OC)C(c1ccc(C)o1)SC(c1ccc(C)o1)=N2 (centres undefined)
99 | CC12CCC3c4ccc(OC5CCCC5)cc4CCC3C1CC(O)C2O (centres undefined)
300 | CC1=NN(c2ccc(S(=O)(=O)O)cc2)C(=O)C1
136 to 141 | O[C@H](C1CCCCC1)[C@H](O)C1CCCCC1
265 to 268 | CC(C)n1cc(C#N)c(=O)[nH]c1=O
203 | COc1ccccc1-c1nnc2n1NC(c1ccc(Cl)cc1)S2 (centres undefined)
184 to 185 | CCCOC(=O)C1=C(C)NC(=O)NC1c1ccc2c(c1)OCO2 (centres undefined)
91 | CCOC(=O)c1cc2ccccc2oc1=S
301 | Cn1c(=O)c(C2=NNC(=O)C2=NNc2nccs2)c(O)c2ccccc21
100 to 103 | O=C(Cl)c1cccnc1Sc1ccc(Cl)cc1
33 to 38 | CCC1CC(=O)CC(C)(C)N1O (centres undefined)
182 to 185 | NC(CS(=O)(=O)Cc1ccc(F)cc1)=NO
29 | Cc1cc(C)c(I)c(C)c1
111 to 114 | O=S(=O)(c1ccc(Cl)cc1)N(C1CCNCC1)C1CC1
82 to 84 | CSC(SC)=C(C#N)C(=O)c1ccc(Cl)cc1
210 | O=[N+]([O-])c1cccc(-c2nnc3n2NC(c2ccccc2O)S3)c1 (centres undefined)

The next lines start with the compound.

SMILES | melting point [°C]
O=C(O)c1cc(I)ccc1F | 163
CC(=O)Cc1ccco1 | 29
CCCN(CCC)S(=O)(=O)c1ccc(C(=O)O)cc1 | 198
O=C(OC(Cl)(Cl)Cl)C(Cl)(Cl)Cl | 34
CCSc1nnc(N)s1 | 133 to 136
COC(=O)N(C(=O)N1COC2(C(=O)OC)Cc3cc(Cl)ccc3C2=N1)c1ccc(OC(F)(F)F)cc1 (centres undefined) | 88.1
Nc1ccc(Oc2ccc(N)cc2)cc1 | 191
CCOC(=O)N(c1ccccc1)c1ccccc1 | 72
Nc1ccc(Cn2ccnc2)cc1 | 128 to 130
NNC(=O)COc1ccc([N+](=O)[O-])cc1 | 189
CC(C)(CO)NCC(O)CS(=O)(=O)O (centres undefined) | 215 to 225
Cc1cc(-c2ccccc2)n[nH]1 | 127 to 128
Cc1ccc(N=C=Nc2ccc(C)cc2)cc1 | 58.5
CCC(CC)Nc1c([N+](=O)[O-])cc(C)c(C)c1[N+](=O)[O-] | 58
COc1cccc(CO)c1OC | 48 to 51
CC(C)NC(=O)C(C)C | 103 to 104
CCOC(=O)CSCCC1NC(C(=O)O)CS1 (centres undefined) | 142
Nc1cccc(-c2cnco2)c1 | 92 to 95
CC=CC=C(C)C | -74.2
CCOc1ccc(C(=O)OC)cc1 | 36
O=C1NC(=O)C(=Cc2ccc(-c3ccc(Br)cc3)o2)C(=O)N1 | 255
C=C(CCl)CCl | 14
OCc1cc(-c2cccs2)[nH]n1 | 126 to 128
O=C1/C(=N/Nc2cccnc2)C(C(F)(F)F)=NN1c1ccccc1 | 161
COc1ccc(CC2c3cc(OC)c(OC)cc3CCN2C)cc1O (centres undefined) | 184
O=C(O)c1ccnn1-c1ccccc1 | 182 to 183
Cc1ccc(C(c2ccc(C)o2)c2cc([N+](=O)[O-])cc(Br)c2O)o1 | 153

SMILES | melting point [°C]
Cc1ccc(-c2cc(-c3ccccn3)nc(-c3ccccn3)c2)cc1 | 169
O=C(Cn1ccnc1[N+](=O)[O-])NCc1ccccc1 | 189
CCCCCCCC(=O)CCCCCCC | 43
CC(=O)Nc1ccccc1N=Nc1ccccc1 | 123
BrCC(CBr)(CBr)CBr | 163
O=C(C(=S)Nc1ccc(I)cc1)c1ccccc1 | 139
Clc1cnc(Cl)c(Cl)c1 | 49
O=Cc1ccc(Cn2cccn2)cc1 | 57 to 59
Cc1ccc(C(c2ccc(C)o2)c2cc(Br)cc([N+](=O)[O-])c2O)o1 | 100
CCCCCCCCCCCCCCCCCCCCCCCCCCCCCCCCCC | 72.6
CCCCCOC(C)=O | -70.8
CC(C)(c1ccccc1)C(C)(C)c1ccccc1 | 90 to 110
CCOC(=O)C(=O)Nc1cc(C(F)(F)F)cc(C(F)(F)F)c1 | 90 to 92
O=C(O)c1ccc(F)cc1C(F)(F)F | 123
O=Cc1ccccc1N1CCN(Cc2ccccc2)CC1 | 58 to 60
N[C@@H](CCC(=O)N[C@@H](CCC(=O)O)C(=O)O)C(=O)O | 179 to 182
O=C(O)c1ccc(C(=O)O)c(OC(F)(F)F)c1 | 270 to 272
COC(=O)c1cc(Cl)nc(Cl)c1 | 82 to 83
O=C(O)COc1ccccc1Br | 141 to 145
FC(F)(F)C(Cl)(Cl)C(Cl)(Cl)C(F)(F)F | 83.5
CC(C)(C)OC(=O)NC(Cc1ccc2ccccc2c1)C(=O)O (centres undefined) | 90
CC(=O)c1ccc(S(=O)(=O)Cl)cc1 | 84
NC(CCP(=O)(O)O)C(=O)O (racemic) | 225 to 228
O=C(O)c1ccc(C(F)(F)F)cc1C(=O)O | 151
Nc1ccc(C=Cc2cccc(N)c2)cc1 | 109
Oc1nccnc1O | 300
CC(C)C(C)(C)[Si](C)(C)Cl | 15

SMILES | melting point [°C]
Oc1cccnc1I | 193
CN=C(N)c1cc(C(C)(C)C)c(O)c(C(C)(C)C)c1 | 280 to 281
COP(=S)(OC)Oc1ccc(S(=O)(=O)N(C)C)cc1 | 53
CC(C)(C)NSc1nc2ccccc2s1 | 108
COC(=O)c1cccc(C)c1O | 29
CCc1oc2ccccc2c1C(=O)c1cc(I)c(O)c(I)c1 | 167
COc1cccc(OCC(=O)O)c1 | 118
CCOc1ccc(NC(=O)CN)cc1 | 100
CC(C)(C)OC(=O)N[C@H](CC(=O)O)Cc1ccncc1 | 142
CC1C(NC(=O)C(=NOC(C)(C)C(=O)O)c2csc(N)n2)C(=O)N1S(=O)(=O)O (centres undefined) | 277
Nc1c(C(=O)O)cccc1C(F)(F)F | 157 to 160
O=C(NCc1ccccn1)C(F)(F)F | 75
OC(CCl)CCl | -4
CC(C)(C)NCC(O)c1cc(O)cc(O)c1 (centres undefined) | 119
CCCOC(=O)c1ccccc1O | 97
Cn1c(S)nnc1-c1cccs1 | 153 to 156
COc1ccccc1NC(C)=O | 87.5
CCc1cc(CC)cc(CC)c1 | -66.5
CCNC(N)=O | 92.5
CC(=O)Nc1ccccc1CCc1ccccc1NC(C)=O | 250
O=C(Nc1ccccc1Br)C(C(F)(F)F)C(F)(F)F | 183 to 185
CC(Oc1ccc(O)cc1)C(=O)O (centres undefined) | 143 to 147
C1=C[C@@H](OCc2ccccc2)[C@H](OCc2ccccc2)[C@@H](COCc2ccccc2)O1 | 54 to 57
Brc1nncs1 | 70 to 73
FC(F)(F)C(F)(F)C(F)(F)C(F)(F)C(F)(F)C(F)(F)C(F)(F)C(F)(F)I | 37
O=C(O)CCCCCl | 18
